Patent publication US20240217983A1, “GPR119 AGONISTS” (Kallyope, Inc., priority 2021, published 2024)

Target: T1, human GPR119 (hGPR119) (Homo sapiens, UniProt Q8TDV5)
T1 construct: expressed in transfected cells
T1 sequence (Q8TDV5 1-335): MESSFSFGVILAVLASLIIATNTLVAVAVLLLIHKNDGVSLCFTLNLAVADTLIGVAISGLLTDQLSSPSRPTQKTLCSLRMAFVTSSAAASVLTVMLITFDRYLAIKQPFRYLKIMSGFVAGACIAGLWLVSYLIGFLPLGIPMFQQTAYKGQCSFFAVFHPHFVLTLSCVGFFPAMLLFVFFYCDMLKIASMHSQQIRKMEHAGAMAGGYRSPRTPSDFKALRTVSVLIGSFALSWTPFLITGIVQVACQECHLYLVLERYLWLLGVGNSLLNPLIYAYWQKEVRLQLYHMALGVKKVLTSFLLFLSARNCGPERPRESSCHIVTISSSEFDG
Test: cAMP accumulation assay (Cisbio cAMP Gs dynamic HTRF kit) in CHO-K1 cells stably expressing human GPR119
Assay type: cell-based
Settings: 4-parameter fit; for Emax: 1 h, % activity normalized to Max and Min controls; for EC50: 60 minutes at 37° C.
Description: CHO-K1 cells stably expressing human GPR119 (hGPR119) were prepared by transfection of a GPR119-carrying plasmid using Lipofectamine 2000 (following manufacturer instructions). A stable cell line was established using the limiting dilution method with geneticine selection. Assay-ready frozen (ARF) cells were prepared and used throughout the study.
The assay was performed in a 384-well plate format using the cAMP Gs dynamic assay kit from Cisbio. ARF cells expressing hGPR119 were thawed, washed and then resuspended in cAMP stimulation buffer at a cell density of 1.1×10^6 cells/mL. Cells were plated at a density of ˜10,000 cells/well (9 μL/well). Dose response curves for the tested compounds were prepared in a cAMP stimulation buffer, containing 0.1% Tween 80 at 4 fold the final concentration. The compounds were then transferred to the cell plates using BRAVO (3 μL/well) and the plates were incubated for 60 minutes at 37° C./5% CO2. Detection buffer (10 μL, prepared as described in the cAMP Gs dynamic kit) were added to each well, and the plates were incubated at ambient temperature for 1 hr.
RT-FRET was measured using a ClarioSTAR plate reader, calculating the ratio between emissions at 665 nm and 620 nm (HTRF ratio). The HTRF ratio for positive (Max) and negative (Min) controls were used to normalize HTRF data and generate values for % activity. EC50 and Max activity values were determined using a standard 4-parameter fit.

| Compound | Emax [%] | EC50 [nM] |
| --- | --- | --- |
| O=C(Cc1ccc(OCCCC2CCN(c3ncc(Cl)cn3)CC2)cc1F)N1CC2(CN(C[C@H](O)[C@@H](O)[C@H](O)[C@H](O)CO)C2)C1 [Example 26, 2-(4-(3-(1-(5-chloropyrimidin-2-yl)piperidin-4-yl)propoxy)-2-fluorophenyl)-1-(6-((2S,3R,4R,5R)-2,3,4,5,6-pentahydroxyhexyl)-2,6-diazaspiro[3.3]heptan-2-yl)ethan-1-one] | 100 to 130 | ≤ 100 |
| O=C(Cc1ccc(OCCCC2CCN(c3ncc(Cl)cn3)CC2)nc1)N1CCN(C[C@H](O)[C@@H](O)[C@H](O)[C@H](O)CO)CC1 [Example 90, 2-(6-(3-(1-(5-chloropyrimidin-2-yl)piperidin-4-yl)propoxy)pyridin-3-yl)-1-(4-((2S,3R,4R,5R)-2,3,4,5,6-pentahydroxyhexyl)piperazin-1-yl)ethan-1-one] | 100 to 130 | 100 to 1000 |
| O=C(Cc1ccc(OCCCC2CCN(c3ncc(Cl)cn3)CC2)cc1F)N1CC2CC(C1)N2C(=O)CCCCS(=O)(=O)O [Example 12, 5-(3-(2-(4-(3-(1-(5-chloropyrimidin-2-yl)piperidin-4-yl)propoxy)-2-fluorophenyl)acetyl)-3,6-diazabicyclo[3.1.1]heptan-6-yl)-5-oxopentane-1-sulfonic acid] | 100 to 130 | ≤ 100 |
| O=C(Cc1ccc(OCCCC2CCN(c3ncc(Cl)cn3)CC2)cc1F)N1CC2(CCC2NC[C@H](O)[C@@H](O)[C@H](O)[C@H](O)CO)C1 (stereo in doubt) [Example 79, 2-(4-(3-(1-(5-chloropyrimidin-2-yl)piperidin-4-yl)propoxy)-2-fluorophenyl)-1-(5-(((2S,3R,4R,5R)-2,3,4,5,6-pentahydroxyhexyl)amino)-2-azaspiro[3.3]heptan-2-yl)ethan-1-one] | ≥ 130 | ≤ 100 |
| O=C(Cc1ccc(OCCCC2CCN(c3ncc(Cl)cn3)CC2)cc1F)N1CCC2(CCCC2NC[C@H](O)[C@H](O)[C@H](O)CO)C1 (stereo partly drawn) [Example 76, 2-(4-(3-(1-(5-chloropyrimidin-2-yl)piperidin-4-yl)propoxy)-2-fluorophenyl)-1-(6-(((2S,3S,4R)-2,3,4,5-tetrahydroxypentyl)amino)-2-azaspiro[4.4]nonan-2-yl)ethan-1-one] | ≥ 130 | ≤ 100 |
| O=C(Cc1ccc(OCCCC2CCN(c3ncc(Cl)cn3)CC2)cc1F)N1CC2(C1)N(C[C@H](O)[C@@H](O)[C@H](O)[C@H](O)CO)CC2(F)F [Example 63, 2-(4-(3-(1-(5-chloropyrimidin-2-yl)piperidin-4-yl)propoxy)-2-fluorophenyl)-1-(3,3-difluoro-1-((2S,3R,4R,5R)-2,3,4,5,6-pentahydroxyhexyl)-1,6-diazaspiro[3.3]heptan-6-yl)ethan-1-one] | ≥ 130 | ≤ 100 |
| O=C(Cc1ccc(OCCCC2CCN(c3ncc(Cl)cn3)CC2)cc1F)N1CCC2(CC1)CN(C(=O)CCCCS(=O)(=O)O)C2 [Example 22, 5-(7-(2-(4-(3-(1-(5-chloropyrimidin-2-yl)piperidin-4-yl)propoxy)-2-fluorophenyl)acetyl)-2,7-diazaspiro[3.5]nonan-2-yl)-5-oxopentane-1-sulfonic acid] | 100 to 130 | 100 to 1000 |
| O=C(CCCCS(=O)(=O)O)N1CC2(C1)CN(C(=O)Cc1ccc(OCCCC3CCN(c4ncc(Cl)cn4)CC3)cc1F)C2 [Example 3, 5-(6-(2-(4-(3-(1-(5-chloropyrimidin-2-yl)piperidin-4-yl)propoxy)-2-fluorophenyl)acetyl)-2,6-diazaspiro[3.3]heptan-2-yl)-5-oxopentane-1-sulfonic acid] | 100 to 130 | ≤ 100 |
| O=C(Cc1ccc(OCCCC2CCN(c3ncc(Cl)cn3)CC2)cc1F)N1C[C@@H]2CCN(C[C@H](O)[C@H](O)[C@H](O)CO)[C@@H]2C1 [Example 34, 2-(4-(3-(1-(5-chloropyrimidin-2-yl)piperidin-4-yl)propoxy)-2-fluorophenyl)-1-((3aS,6aS)-1-((2S,3S,4R)-2,3,4,5-tetrahydroxypentyl)hexahydropyrrolo[3,4-b]pyrrol-5(1H)-yl)ethan-1-one] | ≥ 130 | ≤ 100 |
| O=C(Cc1ccc(OCCCC2CCN(c3ncc(Cl)cn3)CC2)cc1F)N1CC2(C1)N(C(=O)CCCCS(=O)(=O)O)CC2(F)F [Example 19, 5-(6-(2-(4-(3-(1-(5-chloropyrimidin-2-yl)piperidin-4-yl)propoxy)-2-fluorophenyl)acetyl)-3,3-difluoro-1,6-diazaspiro[3.3]heptan-1-yl)-5-oxopentane-1-sulfonic acid] | 100 to 130 | ≤ 100 |
| O=C(Cc1ccc(OCCCC2CCN(c3ncc(Cl)cn3)CC2)cc1F)N1C2CC1CN(C[C@H](O)[C@H](O)[C@H](O)CO)C2 [Example 56, 2-(4-(3-(1-(5-chloropyrimidin-2-yl)piperidin-4-yl)propoxy)-2-fluorophenyl)-1-(3-((2S,3S,4R)-2,3,4,5-tetrahydroxypentyl)-3,6-diazabicyclo[3.1.1]heptan-6-yl)ethan-1-one] | 100 to 130 | ≤ 100 |
| CCc1cnc(N2CCC(CCCOc3cc(F)c(CC(=O)N4CCN(C[C@H](O)[C@@H](O)[C@H](O)[C@H](O)CO)CC4)c(F)c3)CC2)nc1 [Example 93, 2-(4-(3-(1-(5-ethylpyrimidin-2-yl)piperidin-4-yl)propoxy)-2,6-difluorophenyl)-1-(4-((2S,3R,4R,5R)-2,3,4,5,6-pentahydroxyhexyl)piperazin-1-yl)ethan-1-one] | 100 to 130 | ≤ 100 |
| O=C(Cc1ccc(OCCCC2CCN(c3ncc(Cl)cn3)CC2)cc1F)N1CCC2(CC2NC[C@H](O)[C@H](O)[C@H](O)CO)C1 (stereo partly drawn) [Example 83, 2-(4-(3-(1-(5-chloropyrimidin-2-yl)piperidin-4-yl)propoxy)-2-fluorophenyl)-1-(1-(((2S,3S,4R)-2,3,4,5-tetrahydroxypentyl)amino)-5-azaspiro[2.4]heptan-5-yl)ethan-1-one] | 100 to 130 | ≤ 100 |
| O=C(Cc1ccc(OCCCC2CCN(c3ncc(Cl)cn3)CC2)cc1F)N1CCC2(CN(C[C@H](O)[C@@H](O)[C@H](O)[C@H](O)CO)CCO2)C1 (stereo partly drawn) [Example 73, 2-(4-(3-(1-(5-chloropyrimidin-2-yl)piperidin-4-yl)propoxy)-2-fluorophenyl)-1-(9-((2S,3R,4R,5R)-2,3,4,5,6-pentahydroxyhexyl)-6-oxa-2,9-diazaspiro[4.5]decan-2-yl)ethan-1-one] | 100 to 130 | ≤ 100 |
| O=C(Cc1ccc(OCCCC2CCN(c3ncc(Cl)cn3)CC2)cc1F)N1C[C@H]2CN(C(=O)CCCCS(=O)(=O)O)[C@H]2C1 [Example 7, 5-((1S,5R)-3-(2-(4-(3-(1-(5-chloropyrimidin-2-yl)piperidin-4-yl)propoxy)-2-fluorophenyl)acetyl)-3,6-diazabicyclo[3.2.0]heptan-6-yl)-5-oxopentane-1-sulfonic acid] | 100 to 130 | 100 to 1000 |
| O=C(Cc1ccc(OCCCC2CCN(c3ncc(Cl)cn3)CC2)cc1F)N1CCOC2(CCN(C[C@H](O)[C@H](O)[C@H](O)CO)C2)C1 (stereo partly drawn) [Example 80, 2-(4-(3-(1-(5-chloropyrimidin-2-yl)piperidin-4-yl)propoxy)-2-fluorophenyl)-1-(2-((2S,3S,4R)-2,3,4,5-tetrahydroxypentyl)-6-oxa-2,9-diazaspiro[4.5]decan-9-yl)ethan-1-one] | 100 to 130 | ≤ 100 |
